According to patent US4594357A, “Depot antiinflammatory agents” (Troponwerke GmbH & Co., priority 1983, dated 1986):

Legend:
[1] = biological half-life from the inflamed tissue by gas chromatography; type: in vivo; details: rat, read-out: biological half-life (HL) from the inflamed tissue (converted)
Procedure: (§1) It was possible to determine the biological half-life (HL) of the compound 11 in rats from the inflamed tissue by means of gas chromatography [H.-D. Dell, J. Fielder, H. Jacobi and J. Kolle, Arzneim.-Forsch./Drug.Res 31, 17-21 (1981)]. The HL from the tissue is about 8.5 hours. In contrast, an HL of 1.29 days is determined for elimination from the tissue (site of administration) following intramuscular administration of 11 in oily solution.

[2] = tested on: oedema of the rat paw induced by carrageenan; experiment: carrageenan-induced rat paw oedema (oedema inhibition); type: in vivo, rat (male, strain Bor: WISW (SPF-Cpb)); details: for Oedema inhibition: rat; for % Inhibition after depot acid: i.m. 15 mg/kg as an oily solution
Procedure: The oedema-inhibiting and analgesic action of the test substances following intramuscular administration of an appropriate depot formulation was determined with the aid of oedema of the rat paw induced by carrageenan or by means of the Randall-Selitto test [Arch. int. Pharmacodyn. 111, 409 (1957)].
The experiments were carried out on male rats [strain: Bor: WISW (SPF-Cpb), weight about 200 g]. A depot product was administered once intramuscularly to the animals and the antiinflammatory action on the following days was tested by inducing carrageenan oedema. In each case three groups or 5 animals each were investigated per day, the first group consisting of 5 untreated animals, the 2nd group of 5 animals treated only with solvent (for example viscoleo) and the 3rd group of 5 animals treated with depot product (for example 2-(2-hydroxyethoxy)-ethyl-N(α,α,α-trifluoro-m-tolyl)anthranilate (formula 11) in viscoleo).
The paw volumes were measured by the method of F. Kemper and G. Ameln [Z. ges. exp. Med. 131, 407 (1959)], the difference between the paw volumes 5 hours after oedema provocation and the normal paw volume giving the oedema volume. The analgesic action was determined via pressure pain [Randall-Selitto, see above].
The inhibition of the carrageenan oedema following intramuscular administration of 2-(2-hydroxyethoxy)-ethyl N-(α,α,α-trifluoro-m-tolyl)-anthranilate (formula 11) in viscoleo after various doses in a constant administration volume of 0.03 ml (rat) is as follows: […]

[3] = half-life for elimination from the tissue (site of administration); type: in vivo; details: tissue at administration site, im; rat, i.m. administration in oily solution; read-out: HL for elimination from the tissue (site of administration) (converted)
Procedure: as §1

[4] = tested on: oedema of the rat paw induced by carrageenan; details: carrageenan model, cited from earlier work

Which half-life [1] does the source give for `O=C(OCCOCCO)c1ccccc1Nc1cccc(C(F)(F)F)c1` [formula 11, 2-(2-hydroxyethoxy)-ethyl N-(α,α,α-trifluoro-m-tolyl)-anthranilate] here?
Its half-life is roughly 510 min.

And the Oedema inhibition ([2]; 10.5 mg/kg, single i.m., in viscoleo, 1 day after injection)?
The Oedema inhibition was 64.0%.

And the Oedema inhibition ([2]; 10.5 mg/kg, single i.m., in viscoleo, 2 days after injection)?
Its Oedema inhibition is 61.1%.

And the Oedema inhibition ([2]; 10.5 mg/kg, single i.m., in viscoleo, 3 days after injection)?
Its Oedema inhibition is 36.6%.

And the Oedema inhibition ([2]; 10.5 mg/kg, single i.m., in viscoleo, 4 days after injection)?
The Oedema inhibition was 41.6%.

What about the Oedema inhibition ([2]; 15 mg/kg, single i.m., in viscoleo, 1 day after injection) of the same molecule?
Its Oedema inhibition is 77.6%.

What about the Oedema inhibition ([2]; 15 mg/kg, single i.m., in viscoleo, 2 days after injection) of the same molecule?
The Oedema inhibition was 72.2%.

What about the Oedema inhibition ([2]; 15 mg/kg, single i.m., in viscoleo, 3 days after injection) of the same molecule?
The Oedema inhibition was 55.5%.

And the Oedema inhibition ([2]; 15 mg/kg, single i.m., in viscoleo, 4 days after injection)?
The Oedema inhibition was 51.3%.

And the Oedema inhibition ([2]; 19.5 mg/kg, single i.m., in viscoleo, 1 day after injection)?
The Oedema inhibition was 77.6%.

And the Oedema inhibition ([2]; 19.5 mg/kg, single i.m., in viscoleo, 2 days after injection)?
Its Oedema inhibition is 81.3%.

And the Oedema inhibition ([2]; 19.5 mg/kg, single i.m., in viscoleo, 3 days after injection)?
The Oedema inhibition was 61.6%.

What about the Oedema inhibition ([2]; 19.5 mg/kg, single i.m., in viscoleo, 4 days after injection) of the same molecule?
Its Oedema inhibition is 52.1%.

And the half-life [3]?
The half-life was 1860 min.

And the “duration of oedema inhibition after peroral administration” value ([4]; about 24 hours)?
The value was “corresponds to the control value after about 24 hours”.

What about the “oedema inhibition after peroral administration” value [4] of the same molecule?
The value was “powerful oedema inhibition”.

With `CCCCOC(=O)c1ccccc1Nc1cccc(C(F)(F)F)c1` [formula 13, butyl N-(α,α,α-trifluoro-m-tolyl)-anthranilate] as the molecule, how does the Oedema inhibition ([2]; formula 13 in viscoleo, single i.m. 15 mg/kg, 1 day after administration) read?
Its Oedema inhibition is 53.8%.

What about the Oedema inhibition ([2]; formula 13 in viscoleo, single i.m. 15 mg/kg, 2 days after administration) of the same molecule?
The Oedema inhibition was 46.5%.

And the Oedema inhibition ([2]; formula 13 in viscoleo, single i.m. 15 mg/kg, 3 days after administration)?
Its Oedema inhibition is 34.3%.

What about the Oedema inhibition ([2]; formula 13 in viscoleo, single i.m. 15 mg/kg, 4 days after administration) of the same molecule?
The Oedema inhibition was 37.1%.

What about the Oedema inhibition ([2]; formula 13 in viscoleo, single i.m. 15 mg/kg, 5 days after administration) of the same molecule?
The Oedema inhibition was 28.8%.

Which “% Inhibition after depot acid” value ([2]; 1 day after injection) does the source give for `O=C(O)c1ccccc1Nc1cccc(C(F)(F)F)c1` [formula 1, N--(α,α,α-Trifluoro-m-tolyl)-anthranilic acid] here?
Its value is 53.8%.

And the “% Inhibition after depot acid” value ([2]; 2 days after injection)?
The value was 46.5%.

What about the “% Inhibition after depot acid” value ([2]; 3 days after injection) of the same molecule?
Its value is 34.3%.

What about the “% Inhibition after depot acid” value ([2]; 4 days after injection) of the same molecule?
Its value is 37.1%.

And the “% Inhibition after depot acid” value ([2]; 5 days after injection)?
The value was 26.8%.

Which “% Inhibition after depot acid” value ([2]; 1 day after injection) does the source give for `O=C(O)c1cccnc1Nc1cccc(C(F)(F)F)c1` [formula 6, 2-(α,α,α-Trifluoro-m-toluidino)-nicotinic acid] here?
Its value is 57.0%.

And the “% Inhibition after depot acid” value ([2]; 2 days after injection)?
The value was 35.2%.

What about the “% Inhibition after depot acid” value ([2]; 3 days after injection) of the same molecule?
The value was 35.5%.

And the “% Inhibition after depot acid” value ([2]; 4 days after injection)?
Its value is 11.5%.
